Data published in ChEMBL document CHEMBL4118060, “A unique mid-sequence linker used to multimerize the lipid-phosphatidylserine (PS) binding peptide-peptoid hybrid PPS1” (Eur J Med Chem, 2017).
The source made the active and inactive calls. The calls are words filed in the database; no cut-off is given here. Bridge positions count the residues as written; N and C are the ends. Square brackets hold non-standard residues; d marks the D form. Side chains are listed from the residue outwards. Peptide text beside a SMILES is read from it. I, II: the chains in the order shown. ξ: configuration not given here. Gly(N-piperonyl) = O=C(O)CNCc1ccc2c(c1)OCO2; N(4-MeOBn)Gly = COc1ccc(CNCC(=O)O)cc1; Nrpe = C[C@@H](NCC(=O)O)c1ccccc1; NAllylGly = C=CCNCC(=O)O; AEEA = NCCOCCOCC(=O)O; Nlys = NCCCCNCC(=O)O; ξK = NCCCCC(N)C(=O)O; ξM = CSCCC(N)C(=O)O; Nme = COCCNCC(=O)O; βAla = NCCC(=O)O

system: HCC4017; assay: Cytotoxicity against human HCC4017 cells assessed as decrease in cell viability at 0.001 to 50 uM after 24 hrs by MTS assay; assay type: functional, cell-based

Structure (SMILES)	Activity
COc1ccc(CN(CC(=O)NC(CCCCNC(=O)C(CCCCNC(=O)C(CCCCN)NC(=O)C(CCCCN)NC(=O)C(CCSC)NC(=O)CN)NC(=O)CN(Cc2ccc(OC)cc2)C(=O)CN(C(=O)CN(Cc2ccc3c(c2)OCO3)C(=O)CN[C@H](C)c2ccccc2)[C@H](C)c2ccccc2)C(=O)NCCCCC(NC(=O)CN(Cc2ccc(OC)cc2)C(=O)CN(C(=O)CN(Cc2ccc3c(c2)OCO3)C(=O)CN[C@H](C)c2ccccc2)[C@H](C)c2ccccc2)C(=O)NC(CCCCN)C(=O)NC(CCCCN)C(=O)NC(CCSC)C(N)=O)C(=O)CN(C(=O)CN(Cc2ccc3c(c2)OCO3)C(=O)CN[C@H](C)c2ccccc2)[C@H](C)c2ccccc2)cc1 (some centres undefined) (I: H-[Nrpe][Gly(N-piperonyl)][Nrpe][N(4-MeOBn)Gly][ξK][ξK][ξK][ξM]-NH2 / II: H-[Nrpe][Gly(N-piperonyl)][Nrpe][N(4-MeOBn)Gly][ξK]([ξK-ξK-ξM-Gly]) / III: H-[Nrpe][Gly(N-piperonyl)][Nrpe][N(4-MeOBn)Gly][ξK]; amide I:5-III:C, II:C-III:5)	Active
COc1ccc(CN(CC(=O)NC(CCCCNC(=O)C(CCCCN)NC(=O)C(CCCCN)NC(=O)CN)C(=O)NCCCCC(NC(=O)CN(Cc2ccc(OC)cc2)C(=O)CN(C(=O)CN(Cc2ccc3c(c2)OCO3)C(=O)CN[C@H](C)c2ccccc2)[C@H](C)c2ccccc2)C(=O)NC(CCCCN)C(=O)NC(CCCCN)C(=O)NC(CCSC)C(N)=O)C(=O)CN(C(=O)CN(Cc2ccc3c(c2)OCO3)C(=O)CN[C@H](C)c2ccccc2)[C@H](C)c2ccccc2)cc1 (some centres undefined) (I: H-[Nrpe][Gly(N-piperonyl)][Nrpe][N(4-MeOBn)Gly][ξK][ξK][ξK][ξM]-NH2 / II: H-[Nrpe][Gly(N-piperonyl)][Nrpe][N(4-MeOBn)Gly][ξK]([ξK-ξK-Gly]); amide I:5-II:C)	Active
COc1ccc(CN(CC(=O)N(CCCCN)CC(=O)NC(CCCCN)C(=O)NC(CCCCN)C(=O)NC(CCSC)C(N)=O)C(=O)CN(C(=O)CN(Cc2ccc3c(c2)OCO3)C(=O)CN[C@H](C)c2ccccc2)[C@H](C)c2ccccc2)cc1 (some centres undefined) (H-[Nrpe][Gly(N-piperonyl)][Nrpe][N(4-MeOBn)Gly][Nlys][ξK][ξK][ξM]-NH2)	inactive
COc1ccc(CN(CC(=O)NC(CCCCNC(=O)C(CCCCN)NC(=O)C(CCCCN)NC(=O)CN)C(=O)NCCOCCOCC(=O)NCCC(=O)NCCCCC(NC(=O)CN(Cc2ccc(OC)cc2)C(=O)CN(C(=O)CN(Cc2ccc3c(c2)OCO3)C(=O)CN[C@H](C)c2ccccc2)[C@H](C)c2ccccc2)C(=O)NC(CCCCN)C(=O)NC(CCCCN)C(=O)NC(CCSC)C(N)=O)C(=O)CN(C(=O)CN(Cc2ccc3c(c2)OCO3)C(=O)CN[C@H](C)c2ccccc2)[C@H](C)c2ccccc2)cc1 (some centres undefined) (I: H-[Nrpe][Gly(N-piperonyl)][Nrpe][N(4-MeOBn)Gly][ξK][ξK][ξK][ξM]-NH2 / II: H-[Nrpe][Gly(N-piperonyl)][Nrpe][N(4-MeOBn)Gly][ξK]([ξK-ξK-Gly])[AEEA][βAla]; amide I:5-II:C)	Active
C=CCNCC(=O)N(CCOC)CC(=O)N(CC=C)CC(=O)N(CCOC)CC(=O)N(CC=C)CC(=O)NCC(=O)NC(CCCCN)C(=O)NC(CCSC)C(=O)NCCCCC(NC(=O)C(CCSC)NC(=O)C(CCCCN)NC(=O)CNC(=O)CN(CC=C)C(=O)CN(CCOC)C(=O)CN(CC=C)C(=O)CN(CCOC)C(=O)CNCC=C)C(N)=O (centres undefined) (I: H-[NAllylGly][Nme][NAllylGly][Nme][NAllylGly]GKMK-NH2 / II: H-[NAllylGly][Nme][NAllylGly][Nme][NAllylGly]GKM; amide I:9-II:C; configuration not given here)	inactive
COc1ccc(CN(CC(=O)NC(CCCCNC(=O)C(CCCCN)NC(=O)C(CCCCN)NC(=O)CN)C(=O)NC(CCCCN)C(=O)NC(CCCCN)C(N)=O)C(=O)CN(C(=O)CN(Cc2ccc3c(c2)OCO3)C(=O)CN[C@H](C)c2ccccc2)[C@H](C)c2ccccc2)cc1 (some centres undefined) (H-[Nrpe][Gly(N-piperonyl)][Nrpe][N(4-MeOBn)Gly][ξK]([ξK-ξK-Gly])[ξK][ξK]-NH2)	inactive
COc1ccc(CN(CC(=O)NC(CCCCNC(=O)C(CCCCN)NC(=O)C(CCCCN)NC(=O)CN)C(=O)NCCC(=O)NCCCCC(NC(=O)CN(Cc2ccc(OC)cc2)C(=O)CN(C(=O)CN(Cc2ccc3c(c2)OCO3)C(=O)CN[C@H](C)c2ccccc2)[C@H](C)c2ccccc2)C(=O)NC(CCCCN)C(=O)NC(CCCCN)C(=O)NC(CCSC)C(N)=O)C(=O)CN(C(=O)CN(Cc2ccc3c(c2)OCO3)C(=O)CN[C@H](C)c2ccccc2)[C@H](C)c2ccccc2)cc1 (some centres undefined) (I: H-[Nrpe][Gly(N-piperonyl)][Nrpe][N(4-MeOBn)Gly][ξK][ξK][ξK][ξM]-NH2 / II: H-[Nrpe][Gly(N-piperonyl)][Nrpe][N(4-MeOBn)Gly][ξK]([ξK-ξK-Gly])[βAla]; amide I:5-II:C)	Active
COc1ccc(CN(CC(=O)N(CCCCN)CC(=O)NC(CCCCN)C(=O)NC(CCCCN)C(=O)NC(CCSC)C(=O)NCCCCC(NC(=O)C(CCSC)NC(=O)C(CCCCN)NC(=O)C(CCCCN)NC(=O)CN(CCCCN)C(=O)CN(Cc2ccc(OC)cc2)C(=O)CN(C(=O)CN(Cc2ccc3c(c2)OCO3)C(=O)CN[C@H](C)c2ccccc2)[C@H](C)c2ccccc2)C(N)=O)C(=O)CN(C(=O)CN(Cc2ccc3c(c2)OCO3)C(=O)CN[C@H](C)c2ccccc2)[C@H](C)c2ccccc2)cc1 (some centres undefined) (I: H-[Nrpe][Gly(N-piperonyl)][Nrpe][N(4-MeOBn)Gly][Nlys][ξK][ξK][ξM][ξK]-NH2 / II: H-[Nrpe][Gly(N-piperonyl)][Nrpe][N(4-MeOBn)Gly][Nlys][ξK][ξK][ξM]; amide I:9-II:C)	Active

system: HCC4017; assay: Cytotoxicity against human HCC4017 cells assessed as decrease in cell viability at 0.001 to 50 uM after 24 hrs by calcein AM dye-based fluorescence assay; assay type: functional

Structure (SMILES)	Activity
COc1ccc(CN(CC(=O)NC(CCCCNC(=O)C(CCCCNC(=O)C(CCCCN)NC(=O)C(CCCCN)NC(=O)C(CCSC)NC(=O)CN)NC(=O)CN(Cc2ccc(OC)cc2)C(=O)CN(C(=O)CN(Cc2ccc3c(c2)OCO3)C(=O)CN[C@H](C)c2ccccc2)[C@H](C)c2ccccc2)C(=O)NCCCCC(NC(=O)CN(Cc2ccc(OC)cc2)C(=O)CN(C(=O)CN(Cc2ccc3c(c2)OCO3)C(=O)CN[C@H](C)c2ccccc2)[C@H](C)c2ccccc2)C(=O)NC(CCCCN)C(=O)NC(CCCCN)C(=O)NC(CCSC)C(N)=O)C(=O)CN(C(=O)CN(Cc2ccc3c(c2)OCO3)C(=O)CN[C@H](C)c2ccccc2)[C@H](C)c2ccccc2)cc1 (some centres undefined) (I: H-[Nrpe][Gly(N-piperonyl)][Nrpe][N(4-MeOBn)Gly][ξK][ξK][ξK][ξM]-NH2 / II: H-[Nrpe][Gly(N-piperonyl)][Nrpe][N(4-MeOBn)Gly][ξK]([ξK-ξK-ξM-Gly]) / III: H-[Nrpe][Gly(N-piperonyl)][Nrpe][N(4-MeOBn)Gly][ξK]; amide I:5-III:C, II:C-III:5)	Active
